Reference: US11503827B2, “Stabilized chemical composition” (priority 2010, dated 2022)

Assay: Dissolution of active ingredient in liquid epoxy resin mixture, by inspection
Format: physicochemical
Details: 1.0-1.5 g AI in 8 g 635 Thin Epoxy Resin and 4 g 556 2:1 Epoxy Hardener
Experimental: Nine different individual resin mixtures were prepared by mixing together 8 g 635 Thin Epoxy Resin, 4 g 556 2:1 Epoxy Hardener and between 1.0 and 1.5 g of the following finely milled active ingredients: atrazine, azoxystrobin, bicylopyrone, cyproconazole, difenoconazole, mesotrione, prodiamine, thiabendazole, thiamethoxam. […] The samples were placed on a platform shaker overnight at room temperature and then examined by light microscopy. In every case the presence of a dispersion of epoxy resin particles of diameter approximately 100 microns was confirmed. Crystals of the active ingredient were visible inside the epoxy particles under polarized light, except that in the cases of bicyclopyrone and mesotrione individual crystals were not visible as these active ingredients had dissolved in the epoxy resin—in these cases the entire epoxy resin particle was slightly birefringent indicating the presence of crystal domains within the matrix.

| SMILES | dissolution of active ingredient in the liquid resin |
| --- | --- |
| COCCOCc1nc(C(F)(F)F)ccc1C(=O)C1=C(O)C2CCC(C2)C1=O (stereo not drawn) [bicylopyrone] | fully dissolved |
| CS(=O)(=O)c1ccc(C(=O)C2C(=O)CCCC2=O)c([N+](=O)[O-])c1 [mesotrione] | fully dissolved |
| CC(C1CC1)C(O)(Cn1cncn1)c1ccc(Cl)cc1 (stereo not drawn) [cyproconazole] | most of the cyproconazole was dissolved |
